# Reference: patent US11826448B2, “Zinc-arginine-chloride complex” (Colgate-Palmolive Company, priority 2018, dated 2023)
# Tested on: keratinocyte cell line (Hacat)
# Assay: Wound healing efficacy: scratch assay on a keratinocyte monolayer culture
# Assay type: cell-based
# Method: Wound healing efficacy is determined by incubating a monolayer cell culture with ZBA.
# Briefly, a keratinocyte cell line (Hacat) was cultured with full confluency in a 24 well plate. The cells are then scratched horizontally and vertically with a pipet tips to generate a wound. The cells are washed twice with 1 mL of PBS buffer, then full culture medium (supplemented with 10% FBS and 1% antibiotic) is added to the scratched cells. The ZBA solution obtained from Example 1 is diluted with full culture medium at a concentration of 5 ppm or 50 ppm. Culture wells are incubated at 37° C. at 5% CO2 for up to 72 hours with either the ZBA medium mixture or with medium alone. The area of the scratches is then compared by light microscopy at different time points up to 72 hrs.
# [1] = ZBA solution diluted in full culture medium at 5 ppm or 50 ppm, 37° C., 5% CO2, up to 72 hours, light microscopy
substance,measurement,setting,value
[Zn(Arginine)2Cl]^+Cl^− [ZBA],cell migration into the scratch wound compared to medium alone,[1],greater cell migration
same,cell proliferation compared to medium alone,[1],faster proliferation
same,morphology of the cells adjacent to the wound,"in the presence of ZBA, up to 72 hours",improved
